Here are results for 1 compound from paper PMC5775280, “Functional Characterization and Signaling Systems of Corazonin and Red Pigment Concentrating Hormone in the Green Shore Crab, Carcinus maenas” (Frontiers in Neuroscience, 2018).

Peptide text beside a SMILES is read from it.

A short description of assay [1]: Hemolymph glucose levels after peptide injection. The class given is in vivo, Carcinus maenas. The note with it: injection 100 pmol, n = 8. The procedure: Adipokinetic and glucose mobilizing activity of […] and ACP were performed by measurement of triglycerides in hemolymph ([…] et al., [2014]) and glucose (Chung and Webster, [1996]). Hemolymph samples (ca. 100 μl) were taken from crabs injected with each peptide at 0 and 90 min, and subsequently assayed.

Assay [2] relates to red and black epidermal chromatophores, dactyl of the 5th walking leg. Nature of the assay: Chromatophore pigment migration bioassay in vivo. Further details: species or system Carcinus maenas. Conditions: injection after 40 min dispersion with 5 pmol PDH, 0.1–100 pmol/crab for RPCH or AKH, 100 pmol/crab for CRZ or ACP, scored 5 and 20 min after injection. How it is done:
Pigmentary effector activity of […], Locusta migratoria AKH-I, and ACP were measured in vivo, using small (15-20 mm carapace width) C. maenas. Crabs were firstly adapted to a white background, light intensity 300 lx for 1 h. Pigment dispersion of red and black chromatophores in the […] of the 5th walking leg were microscopically observed and indices of dispersion scored according to Hogben and Slome ([1931]). Red and black chromatophores were firstly fully dispersed by injection of 5 pmol C. maenas pigment dispersing hormone ([…]) in 10 μl saline into the hypobranchial sinus, using hand-drawn glass microcapillaries. Chromatophore dispersion indices were scored at 0, 20, 40 min. Peptides were then injected and chromatophores subsequently scored after 5 and 20 min.

The target of assay [3] is T1, C. maenas RPCHR (red pigment concentrating hormone receptor) (Carcinus maenas, UniProt A0A2L0WQF2).
T1 sequence (A0A2L0WQF2 1-529): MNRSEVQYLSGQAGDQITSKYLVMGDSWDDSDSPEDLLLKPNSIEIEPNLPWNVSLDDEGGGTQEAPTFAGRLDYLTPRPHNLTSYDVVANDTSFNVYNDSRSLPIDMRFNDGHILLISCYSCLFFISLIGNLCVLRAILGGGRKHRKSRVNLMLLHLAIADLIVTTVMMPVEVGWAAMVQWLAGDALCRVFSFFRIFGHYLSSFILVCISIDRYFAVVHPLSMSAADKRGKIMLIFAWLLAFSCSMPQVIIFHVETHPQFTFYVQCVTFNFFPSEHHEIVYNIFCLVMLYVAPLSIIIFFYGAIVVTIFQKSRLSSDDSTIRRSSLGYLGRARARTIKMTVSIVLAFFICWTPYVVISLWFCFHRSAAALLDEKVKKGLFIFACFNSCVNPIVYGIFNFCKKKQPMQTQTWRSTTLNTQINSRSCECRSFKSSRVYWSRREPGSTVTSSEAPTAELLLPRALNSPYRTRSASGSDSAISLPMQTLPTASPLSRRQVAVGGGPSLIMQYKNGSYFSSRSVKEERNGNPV
Kind of assay: Aequorin luminescence Ca2+ mobilization in CHO-K1-Aeq cells transiently expressing RPCHR. The note with it: CHO-K1-Aeq cells (without Gα16) transiently expressing RPCHR; luminescence response normalized to total Ca2+ response; dose response curves, means of n = 4. In kind it is cell-based. How it is done: Chinese hamster ovary (CHO-K1) cells containing stably expressed apoaequorin (Perkin Elmer, Boston, MA) and either Gα16 or Gq subunit (control cells) were cultured in Dulbecco's Modified Eagle Medium (DMEM) F-12 Nutrient Mixture GlutaMax (Gibco®) supplemented with 10% fetal bovine serum (Gibco®). Cells were maintained in vented T75 flasks at 37°C in 5% CO2.
Cells grown in a monolayer to approximately 60% confluency in T75 flasks were transfected with pcDNA3.1 constructs using FugeneHD (Promega) according to the manufacturer's recommendations. Briefly, transfection medium was prepared by combining 800 μl Opti-MEM® (Gibco) with 10 μg vector and 30 μl Fugene HD in a 2 ml polystyrene tube and incubated for 10 min at room temperature. The transfection reagent was added to 5 ml of fresh culture media and the cells incubated overnight at 37°C in 5% CO2. After 24 h, an additional 10 ml of culture media were added to the flasks and the cells returned to 37°C at 5% CO2 for a further overnight incubation.
On the day of the assay, cells were detached from the culture flask by incubating for 12 min in 5 ml 0.2% EDTA in PBS. The cells were washed with 10 ml DMEM clear DMEM/F-12 containing L-glutamine, 15 mM HEPES and moved to 50 ml centrifuge tubes. Cells were centrifuged for 5 min at 260 g and resuspended to a concentration of 5 × 10^6 cells ml^−1 in 0.2 μm filtered BSA medium (DMEM/F-12 containing L-glutamine, 15 mM HEPES + 0.1% BSA). Coelenterazine h (Invitrogen, Paisley, UK) was added to a concentration of 5 μM and the cells incubated for 4 h in the dark at room temperature whilst gently rocking. The cells were diluted 10-fold and incubated for a further 60 min before use in the assay. Synthetic peptides (GeneCust, Dudelange, Luxembourg) were reconstituted in 30% acetonitrile, dried in small aliquots by vacuum centrifugation and subsequently redissolved in BSA medium. Fifty microliter aliquots were then dispensed into quadruplicate wells of a white 96-well plate (OptiPlate, PerkinElmer). Cell suspensions were gently stirred and injected in 50 μl aliquots into each well using a Mithras LB 940 microplate reader (Berthold Technologies, Bad-Wildbad, Germany) and light emission (Ca^2+ response) recorded for 30 s. Cells were then lysed by injection of 0.3% Triton-X in BSA medium and light emission recorded for a further 10 s to measure total Ca^2+ response. BSA medium was used for blank measurements (6 replicate wells per plate) and mock transfection with empty vectors carried out for negative controls. Data was analyzed using MikroWin v5.18 (Mikrotek Laborsysteme GmbH) and SigmaPlot v.13 (Systat Software, Inc.). Receptor response was normalized against total Ca^2+ response.
A general note: A change in cytosolic calcium serves as a functional read-out for many receptors and channels.

Assay [4] can be described thus: Hemolymph triglyceride levels after peptide injection. The note with it: lipid mobilization bioassay. The class given is in vivo, Carcinus maenas.

Take `CC(C)C[C@H](NC(=O)[C@@H]1CCC(=O)N1)C(=O)N[C@@H](CC(N)=O)C(=O)N[C@@H](Cc1ccccc1)C(=O)N[C@@H](CO)C(=O)N1CCC[C@H]1C(=O)NCC(=O)N[C@@H](Cc1c[nH]c2ccccc12)C(N)=O` [RPCH] (HELM PEPTIDE1{[Glp].L.N.F.S.P.G.W.[am]}$$$$V2.0): the “effect of eyestalk removal on the glucose response” value in assay [1] (eyestalk removal, 90 min) is listed as “completely abolished this response”. The “effect on circulating glucose levels, intact crabs” value in assay [1] (within 90 min, Student's matched pair t-test P < 0.01) is recorded as “significantly raised circulating glucose levels”. Further, in assay [2], the “pigment migration (concentration) in red and black epidermal chromatophores” value was “dose-dependent concentration of pigment in the red (but not the black) chromatophores”. Also, in assay [3], the EC50 – broadly, the concentration giving half of the maximal effect – was found to be 0.02 nM. The “effect on hemolymph diacylglycerol levels” value in assay [4] was “completely without effect”.
